Reference: patent publication US20140259191A1, “FISH ANESTHETIC AND METHOD” (AQUA-MOR TECHNOLOGIES LTD., priority 2011, published 2014)

Legend:
goldfish = experiment: Anesthesia of goldfish by linalool or Ho Wood oil added to tank water; format: in vivo, Carassius auratus auratus
Procedure: (§1) A one year old koi fish of body length 11 cm and which appeared to be healthy was placed in a 4 liter tank containing water at 25° C. and in which the water was circulated by means of aeration. A liquid a mixture containing 1 wt. % synthetic linalool (1 wt. % linalool, 5 wt. % 14R, 2 wt. % AF80 and 92 wt. % water) was added to the tank and manually mixed with the water so that the concentration of linalool in the water was 50 ppm. This was regarding as the starting time of the experiment; thereafter, observations were made regularly to determine the behavior of the fish in water. This continued until no response to external stimulation and complete loss of equilibrium were observed, at which point the fish was transferred to a recovery tank containing fresh water. The fish was placed near the air pump, and the time until the fish again swam and responded normally to external stimulation was recorded.
(§2) The experiment of Example 1 was repeated, using a one year old goldfish of 8.5 cm body length. […] At 9.5 minutes the fish was removed to a recovery tank with clean water. Thereafter it recovered slowly and after 35 minutes was swimming around in the tank and appeared to have resumed normal activity.
as §2, with “length, and adding the linalool formulation to a linalool concentration in the water of 75 ppm instead of 50 ppm. After 2 minutes of exposure to linalool the fish appeared to be in stress.” for “length.”, “20” for “9.5”, “activity. […]” for “activity.”
This example illustrates the effects of Linalool on Goldfish (cold water fish). The experiment was performed in a four liter tank with three 10-month old goldfish of respective weights 32 g, 30 g and 34 g and respective body lengths of 12.5 cm, 11.5 cm and 11 cm. The water temperature was 16° C. and the pH was 7. A formulation containing 1% Linalool was added to the water to a concentration of 50 ppm linalool in the water. The fish became relaxed 5 minutes after introduction of the linalool, and after 6 5 minutes there fish were completely anesthetized. After 20 minutes of exposure to linalool, the fish were removed to a recovery tank with fresh water. 15 minutes thereafter the fish had resumed normal behavior. […]
The experiment of Example 1 was repeated, using two one-year old goldfish of respective body lengths 8.5 and 7.5 cm and respective weights of 17 and 15 g, and adding the a natural source of linalool (Ho Wood oil) to a concentration of 75 ppm linalool instead of 50 ppm. […] At 4 minutes the fish were removed to a recovery tank with clean water. After 5 minutes in the recovery tank they swam around and appeared to have resumed normal activity.
The experiment of Example 21 was repeated, using two one-year old goldfish of respective body lengths 9 and 8 cm and respective weights 19 and 17.5 g, but adding Ho Wood oil to a linalool concentration of 50 ppm in the water. […] At 16.5 minutes the fish were removed to a recovery tank with clean water. After 4 minutes in the recovery tank they swam around and appeared to have resumed normal activity.

Ramirez fish = experiment: Anesthesia of Ramirez fish by linalool or Ho Wood oil added to tank water; format: in vivo
Procedure: as §1
This experiment repeated the experiment of Example 1, using three goldfish (Carassius auratus auratus, average body length 12.5 cm) and five Ramirez fish (Mikrogeophagus ramirezi, body length 3.5-4 cm). All fishes appeared to be healthy. The goldfish tank held 4 liters of water and the tank holding the Ramirez fish one liter.
The experiment of example 9 was repeated, this time using five nine-month old Ramirez fish (M. ramirezi) in a one-liter tank. The respective weights were 0.8 g, 0.75 g, 0.7 g, 0.85 g and 0.75 g and the respective body lengths were 3.5 cm, 3.5 cm, 3 cm, 4 cm and 3 cm. The water temperature was 26° C. and the pH was 7. The fish became relaxed 2 minutes after addition of linalool, and after 5 minutes the fish were completely anesthetized. After 10 minutes the fish were removed to a recovery tank with fresh water. After 5 minutes in the recovery tank the fish had resumed normal behavior.
The experiment of Example 21 was repeated, using four one-year old Ramirez fish of respective body lengths 3, 2.5, 3 and 3.5 cm, and adding the Ho Wood oil to a linalool concentration of 50 ppm in the water. […] At 2.5 minutes the fish were removed to a recovery tank with clean water. After 7 minutes in the recovery tank they swam around and appeared to have resumed normal activity.
The experiment of Example 21 was repeated, using four 1-year old Ramirez fish of respective body lengths 3, 3.5, 3.5 and 4 cm, and adding the Ho Wood oil to a linalool concentration in the water of 75 ppm instead 50 ppm. […] At 1.5 minutes the fish were removed to a recovery tank with clean water. After 7 minutes in the recovery tank the fish swam around and appeared to have resumed normal activity.

common carp = experiment: Five-hour sedation of common carp, linalool versus 2-phenoxyethanol; format: in vivo; details: linalool 40 ppm; for Number of fish exhibiting loss of upright position: 26° C.
Procedure: 2-Phenoxyethanol (2-PE) is used to sedate fish in vaccinations procedures for relatively long periods of time (3 hours). 35 common carp were placed in each of two 60-liter tanks containing water at 26° C. Into one tank was added linalool (in a formulation as described in Example 28) to a concentration of 40 ppm; into the other tank was added 2-PE to a concentration of 200 ppm. Sedation of fish was determined by observation of loss of upright position, operculum movement and response to stimulus (handling). Total exposure time was five hours, at the end of which the fish were transferred 60-liter recovery tanks containing untreated water.

[1] = Example 4: goldfish 8.5 cm, 50 ppm linalool in water
[2] = Example 5: goldfish 8.5 cm, 75 ppm linalool in water
[3] = Example 6: goldfish 8 cm, 100 ppm linalool in water
[4] = Example 11: three goldfish 25-27.5 g, 100 ppm linalool
[5] = Example 12: five Ramirez fish 0.7-0.85 g, experiment of example 9 (50 ppm linalool), 26° C., pH 7

C=CC(C)(O)CCC=C(C)C (stereo not shown) [linalool]
time of exposure until complete loss of equilibrium (goldfish; [1]): 6.5 min
time of exposure until no response to external stimulation (goldfish; [1]): 9 min
time of exposure until partial loss of equilibrium (goldfish; [1]): 5 min
time in recovery tank until normal activity resumed (goldfish; Example 4: goldfish 8.5 cm, 50 ppm linalool, removed to clean water at 9.5 minutes): 35 min
time of exposure until complete loss of equilibrium (goldfish; [2]): 5 min
time of exposure until no response to external stimulation (goldfish; [2]): 9 min
time of exposure until partial loss of equilibrium (goldfish; [2]): 2.5 min
time in recovery tank until normal activity resumed (goldfish; Example 5: goldfish 8.5 cm, 75 ppm linalool, removed to clean water at 20 minutes): 35 min
time of exposure until complete loss of equilibrium (goldfish; [3]): 2 min
time of exposure until no response to external stimulation (goldfish; [3]): 3.5 min
time of exposure until partial loss of equilibrium (goldfish; [3]): 1.5 min
time in recovery tank until normal activity resumed (goldfish; Example 6: goldfish 8 cm, 100 ppm linalool, removed to clean water at 4 minutes): 35 min
mortality during a further three days of observation (goldfish; Example 7: three goldfish, average 12.5 cm, experiment of Example 1 repeated): no mortality occurred
time in recovery tank until normal behavior resumed (goldfish; Example 9: goldfish, 50 ppm linalool, 16° C., removed after 20 minutes of exposure): 15 min
time after introduction of linalool until fish became relaxed (goldfish; Example 9: three goldfish 30-34 g, 50 ppm linalool, 16° C., pH 7): 5 min
time in recovery tank until normal behavior resumed (goldfish; Example 10: goldfish, 75 ppm linalool, 16° C., removed at 20 minutes): 35 min
time until fish completely anesthetized (goldfish; Example 10: three goldfish 25-27 g, 75 ppm linalool, 16° C., pH 7): 5 min
time in recovery tank until normal behavior resumed (goldfish; Example 11: goldfish, 100 ppm linalool, removed at 4 minutes): 20 min
time after addition of linalool until fish became relaxed (goldfish; [4]): 1.5 min
time until fish completely anesthetized (goldfish; [4]): 2 min
mortality during a further three days of observation (Ramirez fish; Example 7: five Ramirez fish 3.5-4 cm, experiment of Example 1 repeated): no mortality occurred
time in recovery tank until normal behavior resumed (Ramirez fish; Example 12: Ramirez fish, 26° C., removed after 10 minutes): 5 min
time after addition of linalool until fish became relaxed (Ramirez fish; [5]): 2 min
time until fish completely anesthetized (Ramirez fish; [5]): 5 min
Number of fish exhibiting loss of upright position (common carp; 35 common carp per tank, 2-PE 200 ppm, time 10:30 (start), aeration): 0
Number of fish exhibiting loss of upright position (common carp; 35 common carp per tank, 2-PE 200 ppm, time 11:00 (start 10:30), no aeration): 2
Number of fish exhibiting loss of upright position (common carp; 35 common carp per tank, 2-PE 200 ppm, time 11:40 (start 10:30), no aeration): 9
Number of fish exhibiting loss of upright position (common carp; 35 common carp per tank, 2-PE 200 ppm, time 12:35 (start 10:30), no aeration): 16
Number of fish exhibiting loss of upright position (common carp; 35 common carp per tank, 2-PE 200 ppm, time 13:35 (start 10:30), no aeration): 17
Number of fish exhibiting loss of upright position (common carp; 35 common carp per tank, 2-PE 200 ppm, time 14:30 (start 10:30), aeration): 20
Number of fish exhibiting loss of upright position (common carp; 35 common carp per tank, 2-PE 200 ppm, time 15:30 (start 10:30), aeration): 16
survival at transfer to recovery tank (common carp; 35 common carp per tank, 2-PE 200 ppm, after five hours exposure): All alive
reflex response over the 5 hours of exposure (common carp; common carp, 2-PE 200 ppm): reduced from the beginning of the trial and remained at the same level of reflex throughout the 5 hours of exposure
sedative effect between 3 and 5 hours of exposure (common carp; common carp, 2-PE 200 ppm): maintained
recovery after placement in a recovery tank (common carp; common carp, 2-PE 200 ppm, after five hours exposure): recovered quickly in few minutes and did not show signs of stress
response to external stimulation during the first 3 hours (common carp; common carp, 2-PE 200 ppm, sedation levels enabled handling): did not respond to external stimulation
loss of reflex reactivity (common carp; common carp, in contrast to 2-PE): did not completely lose reflex reactivity
